These are literature values, as cited in patent US20060270852A1, “PREPARATION OF BISQUINOLINE COMPOUNDS” (priority 2005, published 2006).

Assay in data set [1]: not given
This is another data set of the same source.

The subject of data set [2] is falciparum and vivax malaria.

Where two headings read alike, the source gives them in different places.

Turning to `Clc1ccc2c(N3CCN(CCCN4CCN(c5ccnc6cc(Cl)ccc56)CC4)CC3)ccnc2c1` [Piperaquine phosphate], the solubility in water result is “soluble in water”.

On to `Clc1ccc2c(N3CCN(CCCN4CCN(c5ccnc6cc(Cl)ccc56)CC4)CC3)ccnc2c1` [piperaquine, 1,3-Bis-[4-(7′-chloro-quinoline-4′)piperazine-1]propane], for which the “dissociation constant [pKa]” value in data set [1] is recorded as 8.92. Further, the solubility in water entry (at neutral and alkaline pH) is reported as “only sparingly soluble in water”. The “efficacy compared with chloroquine” value in data set [2] (against falciparum and vivax malaria) is “at least as effective as”. Besides, the “tolerability compared with chloroquine” value in data set [2] (in vivo) was “better tolerated than”.
